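Growth conditions: 96-well plates. Treatment: test compound, 48 hours, 5 concentrations. Analysis: linear interpolation between bracketing concentrations; unreached endpoints set to highest concentration. At the GI50, growth is halved. At the TGI there is no net growth.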
Assays:
Assay in all cases: growth of human tumour cells (NCI), 48 h
[1] = system: 786-0 renal
[2] = system: A498 renal
[3] = system: A549 NSCLC
[4] = system: ACHN renal
[5] = system: BT-549 breast
[6] = system: CAKI-1 renal
[7] = system: CCRF-CEM leukemia
[8] = system: COLO 205 colon
[9] = system: DU-145 prostate
[10] = system: EKVX NSCLC
[11] = system: HCC-2998 colon
[12] = system: HCT-116 colon
[13] = system: HCT-15 colon
[14] = system: HL-60(TB) leukemia
[15] = system: HOP-62 NSCLC
[16] = system: HOP-92 NSCLC
[17] = system: HS 578T breast
[18] = system: HT29 colon
[19] = system: IGROV1 ovarian
[20] = system: K-562 leukemia
[21] = system: KM12 colon
[22] = system: LOX IMVI melanoma
[23] = system: M14 melanoma
[24] = system: MCF7 breast
[25] = system: MDA-MB-231 breast
[26] = system: MDA-MB-435
[27] = system: MOLT-4 leukemia
[28] = system: NCI-H226 lung
[29] = system: NCI-H23 lung
[30] = system: NCI-H460 lung
[31] = system: NCI-H522 lung
[32] = system: NCI/ADR-RES ovarian
[33] = system: OVCAR-3 ovarian
[34] = system: OVCAR-4 ovarian
[35] = system: OVCAR-5 ovarian
[36] = system: OVCAR-8 ovarian
[37] = system: PC-3 prostate
[38] = system: RPMI-8226 leukemia
[39] = system: RXF 393 renal
[40] = system: SF-268 CNS
[41] = system: SF-295 CNS
[42] = system: SF-539 CNS
[43] = system: SK-MEL-2 melanoma
[44] = system: SK-MEL-28 melanoma
[45] = system: SK-MEL-5 melanoma
[46] = system: SK-OV-3 ovarian
[47] = system: SN12C renal
[48] = system: SNB-19 CNS
[49] = system: SNB-75 CNS
[50] = system: SR leukemia
[51] = system: SW-620 colon
[52] = system: T-47D breast
[53] = system: TK-10 renal
[54] = system: U251 CNS
[55] = system: UACC-257 melanoma
[56] = system: UACC-62 melanoma
[57] = system: UO-31 renal

## O=S(=O)(Nc1ccc(Br)c(Cl)c1)c1ccc(-c2cnc(C3CC3)o2)cc1
[1]
  GI50: 0.574 µM
  TGI: 17.9 µM
[2]
  GI50: 0.189 µM
  TGI: 0.845 µM
[3]
  GI50: 0.789 µM
  TGI: 18.3 µM
[4]
  GI50: 0.562 µM
  TGI: 18.2 µM
[5]
  GI50: 0.682 µM
  TGI: 17.8 µM
[6]
  GI50: 0.431 µM
  TGI: 16.4 µM
[7]
  GI50: 0.411 µM
  TGI: > 45.9 µM
[8]
  GI50: 0.765 µM
  TGI: 11.3 µM
[9]
  GI50: 1.52 µM
  TGI: 17.6 µM
[10]
  GI50: 2.07 µM
  TGI: 21 µM
[11]
  GI50: 1.61 µM
  TGI: 11.6 µM
[12]
  GI50: 0.432 µM
  TGI: 13.6 µM
[13]
  GI50: 0.445 µM
  TGI: 13.7 µM
[14]
  GI50: 0.303 µM
  TGI: 4.96 µM
[15]
  GI50: 0.58 µM
  TGI: 19 µM
[16]
  GI50: 0.487 µM
  TGI: 8.72 µM
[17]
  GI50: 0.351 µM
  TGI: 18.3 µM
[18]
  GI50: 0.356 µM
  TGI: 5.23 µM
[19]
  GI50: 0.577 µM
  TGI: 14.8 µM
[20]
  GI50: 0.323 µM
  TGI: > 100 µM
[21]
  GI50: 0.445 µM
  TGI: 14.9 µM
[22]
  GI50: 0.565 µM
  TGI: 16.2 µM
[23]
  GI50: 0.458 µM
  TGI: 14.1 µM
[24]
  GI50: 0.339 µM
  TGI: 16 µM
[25]
  GI50: 1.91 µM
  TGI: 16.4 µM
[26]
  GI50: 0.177 µM
  TGI: 2.45 µM
[27]
  GI50: 0.688 µM
  TGI: > 50.4 µM
[28]
  GI50: 1.23 µM
  TGI: 18.8 µM
[29]
  GI50: 1.27 µM
  TGI: 15.6 µM
[30]
  GI50: 0.415 µM
  TGI: 12.6 µM
[31]
  GI50: 0.262 µM
  TGI: 10.7 µM
[32]
  GI50: 0.43 µM
  TGI: 6.86 µM
[33]
  GI50: 0.37 µM
  TGI: 7.32 µM
[34]
  GI50: 2.67 µM
  TGI: 21.9 µM
[35]
  GI50: 1.97 µM
  TGI: 14.1 µM
[36]
  GI50: 1.5 µM
  TGI: 21.4 µM
[37]
  GI50: 0.493 µM
  TGI: 14.8 µM
[38]
  GI50: 0.585 µM
  TGI: 64.8 µM
[39]
  GI50: 0.348 µM
  TGI: 3.48 µM
[40]
  GI50: 1.56 µM
  TGI: 23.5 µM
[41]
  GI50: 0.343 µM
  TGI: 3.41 µM
[42]
  GI50: 0.374 µM
  TGI: 5.08 µM
[43]
  GI50: 2.45 µM
  TGI: 24 µM
[44]
  GI50: 4.35 µM
  TGI: 22 µM
[45]
  GI50: 0.602 µM
  TGI: 13.9 µM
[46]
  GI50: 1.49 µM
  TGI: 24.2 µM
[47]
  GI50: 1.27 µM
  TGI: 16 µM
[48]
  GI50: 0.517 µM
  TGI: 16.2 µM
[49]
  GI50: 0.196 µM
  TGI: 0.662 µM
[50]
  GI50: 0.38 µM
  TGI: > 49.4 µM
[51]
  GI50: 0.392 µM
  TGI: 15.4 µM
[52]
  GI50: 0.437 µM
  TGI: 21.1 µM
[53]
  GI50: 2.89 µM
  TGI: 20.6 µM
[54]
  GI50: 0.507 µM
  TGI: 15.4 µM
[55]
  GI50: 2.08 µM
  TGI: 25.9 µM
[56]
  GI50: 0.372 µM
  TGI: 13.6 µM
[57]
  GI50: 1.11 µM
  TGI: 13.6 µM
